Data on 9 compounds can be found in patent publication US4235905A, “1H-Pyrimido[4,5-c]-1,2-diazepines” (Burroughs Wellcome Co., priority 1977, dated 1980).

Like-named read-outs stand apart in the source and are kept apart here.

The term LD50 denotes the dose at which mortality reaches 50%. Low values mean greater toxicity, high ones lower toxicity.

The subject of data set [1] is Eimeria tenella (Weybridge). The experiment in a line: Anti-coccidial activity in vitro, chick embryo liver cell cultures with Eimeria tenella sporozites. In kind it is cell-based. The conditions noted are these: for Activity, Alone: compound alone; for Activity, With DV/SQX: with sulphaquinoxaline (0.01 μg/ml) and diaveridine (0.031 μg/ml); for minimal effective concentration: Eimeria tenella, read-out: minimum active anti-coccidial amount. The method, then:
The anti-coccidial activity of compounds of formula (III) alone and in combination with a mixture of diaveridine (DV) and sulphaquinoxaline (SQX) in vitro was tested according to the following procedure.
Using standard test procedures employing primary explant cultures of chick embryo liver cells and a suspension of Eimeria tenella (Weybridge) sporozites the activity of the compounds was determined at various concentrations. In the above test, each test compound was used either alone or in combination with sulphaquinoxaline (0.01 μg/ml) and diaveridine (0.031 μg/ml). It should be noted that the minimum active anti-coccidial amounts of sulphaquinoxaline and diaveridine are 0.024 μg/ml and 0.098 μg/ml respectively.
The following results were obtained wherein activity is expressed as follows: […]

A short description of a further data set: LD50 in mice. The conditions noted are these: mouse, in vivo, ip. The protocol: By standard techniques the LD50 values of the following compounds of formula (I) were determined in mice.
The subject of a further data set is Staphylococcus aureus. The experiment in a line: Antibacterial activity of trimethoprim and sulphamethoxazole alone and in combination with compounds of formula (II) (activity index). It counts as cell-based. To be noted: compound of formula (II) at 50 μg/ml, viable counts after 24 hours incubation of 10^6 organisms per ml; for activity index, SMX: in combination with sulphamethoxazole (SMX); for activity index, TMP: in combination with trimethoprim (TMP). The method, then:
The antibacterial activity against Staphylococcus aureus of trimethoprim (TMP) and sulphamethoxazole (SMX) alone and in combination with compounds of formula (II) were compared.
The results shown in the table are expressed as an activity index which is: [formula] the effect of the compounds being measured by viable counts after 24 hours incubation of 10^6 organisms per ml.
In this test, the compounds of formula (II) were present at 50 μg/ml.
An activity index ≥2 is indicative of substantial potentiation: […]

In data set [2] the test system is Weybridge strain of Eimeria tenella. The experiment in a line: Anti-coccidial activity in vivo in chicks, caecal lesion score. To be noted: compound 200 ppm in diet with DV 20 ppm and SQX 20 ppm, sixth day after infection, scale 0-3, dead = 4. The method, then: Compounds of formula (III) were tested for anti-coccidial activity in vivo in combination with diaveridine (DV) and sulphaquinoxaline (SQX), each at 20 ppm, according to the following procedure. Groups of five, one week old chicks were each injected orally with 6,000 sporulated o cysts of the Weybridge strain of Eimeria tenella. Drugs were administered in LD 5 chick mash deficient in Vitamin K, beginning on the day of infection and continuing for 7 days. On the sixth day after infection, caecal lesions of surviving chicks were scored on a scale of 0, 1, 2 or 3 and any dead chicks were scored as 4.

With `CN1N=C(c2ccccc2)C=C(c2ccccc2)c2c1nc(N)[nH]c2=O` [Example 1, 8-Amino-3,5-diphenyl-1-methyl-1H-pyrimido{4,5-c}-1,2-diazepin-6(7H)-one], in data set [1] (concentration 25 μg/ml), the “Activity, Alone” value was 4 (1-25% parasite development) and the “Activity, With DV/SQX” value was 4 (1-25% parasite development).
In turn, `CC1=CC(C)=NN(C)c2nc(N)[nH]c(=O)c21` [Example 2, 8-Amino-1,3,5-trimethyl-1H-pyrimido{4,5-c}-1,2-diazepin-6(7H)-one] registered a 50% lethal dose (LD50) in the data set “LD50 in mice” of approximately 500 mg/kg.
Consider `COC(=O)C1=NN(C)c2nc(N)[nH]c(=O)c2C(c2cccc(O)c2)=C1` [Example 3, 8-Amino-3-carbomethoxy-5-(3-hydroxyphenyl)-1-methyl-1H-pyrimido{4,5-c}-1,2-diazepin-6(7H)-one], for which, in the data set with Staphylococcus aureus, the “activity index, SMX” value was 2.7 and the “activity index, TMP” value is recorded as 0.9.
For `CCOC(=O)C1=NN(C)c2nc(N)[nH]c(=O)c2C(c2ccccc2)=C1` [Example 5, 8-Amino-3-carbethoxy-1-methyl-5-phenyl-1H-pyrimido-{4,5-c}-1,2-diazepin-6(7H)-one], in that order: more than 2.8 and 2.0.
Take `COC(=O)C1=NN(C)c2nc(N)[nH]c(=O)c2C(c2cc(OC)c(OC)c(OC)c2)=C1` [Example 6, 8-Amino-3-carbomethoxy-1-methyl-5-(3,4,5-trimethoxyphenyl)-1H-pyrimido{4,5-c}-1,2-diazepin-6(7H)-one]: the Lesion score in data set [2] stood at 0.6. Further, the “Activity, Alone” value is given as 2 (51-75% parasite development) in data set [1] (concentration 1.56 μg/ml), 3 (26-50% parasite development) in data set [1] (concentration 6.25 μg/ml), 3 (26-50% parasite development) in data set [1] (concentration 25 μg/ml) and 3 (26-50% parasite development) in data set [1] (concentration 100 μg/ml). In addition, the “Activity, With DV/SQX” value in data set [1] (concentration 1.56 μg/ml) is given as 3 (26-50% parasite development); in data set [1] (concentration 6.25 μg/ml) it was 3 (26-50% parasite development); in data set [1] (concentration 25 μg/ml), 4 (1-25% parasite development); in data set [1] (concentration 100 μg/ml) it was 5.
Consider `CCOC(=O)C1=NN(C)c2nc(N)[nH]c(=O)c2C(c2ccc(OC)cc2OC)=C1` [Example 7, 8-Amino-3-carbethoxy-1-methyl-5-(2,4-dimethoxyphenyl)1H-pyrimido{4,5-c}-1,2-diazepin-6(7H)-one], for which the Lesion score in data set [2] is reported as 1.2. The “Activity, Alone” value in data set [1] (concentration 1.56 μg/ml) was 0 (95-100% parasite development); in data set [1] (concentration 6.25 μg/ml), 2 (51-75% parasite development); in data set [1] (concentration 25 μg/ml), 4 (1-25% parasite development); in data set [1] (concentration 100 μg/ml) it was 4 (1-25% parasite development). The “Activity, With DV/SQX” value is on record as 2 (51-75% parasite development) in data set [1] (concentration 1.56 μg/ml), 3 (26-50% parasite development) in data set [1] (concentration 6.25 μg/ml), 5 in data set [1] (concentration 25 μg/ml) and 5 in data set [1] (concentration 100 μg/ml).
As to `COc1ccc(Cc2cnc(N)nc2N)cc1OC` [diaveridine, reference compound], in data set [1], the minimal effective concentration was determined as 0.098 µg/mL.
The compound `COC(=O)C1=NN(C)c2nc(N)[nH]c(=O)c2C(c2cc(OC)c(OC)c(OC)c2)=C1` [drawing 31] yielded an LD50 in “LD50 in mice” of more than 500 mg/kg.
Take `Nc1ccc(S(=O)(=O)Nc2cnc3ccccc3n2)cc1` [sulphaquinoxaline, reference compound]: the minimal effective concentration in data set [1] (in vitro, alone) came to 0.024 µg/mL.
